A short description of series [1]: log P by HPLC on reversed-phase columns (EEC directive 79/831 Annex V.A8). The format is physicochemical. How it is done: The log P values were measured according to EEC directive 79/831 Annex V.A8 by HPLC (High Performance Liquid Chromatography) on reversed-phase columns, using the methods below: […] Calibration was carried out using unbranched alkan-2-ones (having from 3 to 16 carbon atoms) with known log P values (the log P values were determined by the retention times using linear interpolation between two successive alkanones). The lambda maX values were determined in the maxima of the chromatographic signals using the UV spectra from 200 nm to 400 nm.

The next series deals with Phytophthora infestans. The series is classed as in vivo. The following applies: tomato, preventative, 500 ppm, evaluation 5 days after inoculation.
The subject of series [2] is Sphaerotheca fuliginea. Briefly: Example V: preventative in vivo test with Sphaerotheca fuliginea (powdery mildew on cucumber). Particulars: 500 ppm, evaluation 12 days after inoculation. The procedure: The active compounds tested are prepared by homogenization in a mixture of acetone/Tween/DMSO and then diluted with water to the desired active compound concentration. Cucumber plants (cultivar “Vert petit de Paris”), sown in a 50/50 peat/pozzolana soil substrate and cultivated at 24° C., are treated at the Z11 cotyledon stage by spraying with the active compound, prepared as above. As a control, plants are treated with the mixture of acetone/Tween/DMSO/water without the active compound. After 24 hours, the plants are inoculated by spraying the leaves with an aqueous suspension of Sphaerotheca fuliginea spores. The inoculated cucumber plants are incubated at about 20° C./25° C. and a relative atmospheric humidity of 60/70%.

Series [3] deals with Septoria tritici. The experiment in a line: Example U: preventative in vivo test with Septoria tritici (leaf blotch disease on wheat). Particulars: 500 ppm, evaluation 21 to 28 days after inoculation. The procedure:
The active compounds tested are prepared by homogenization in a mixture of acetone/Tween/DMSO and then diluted with water to the desired active compound concentration. Wheat plants (cultivar “Scipion”), sown in a 50/50 peat/pozzolana soil substrate and cultivated at 22° C. (12 h)/20° C. (12 h), are treated at the 1-leaf stage (height 10 cm) by spraying with the active compound, prepared as above. As a control, plants are treated with the mixture of acetone/Tween/DMSO/water without the active compound. After 24 hours, the plants are inoculated by spraying the leaves with an aqueous suspension of cryogenically preserved Septoria tritici spores.

For series [4], the system named is Uromyces appendiculatus. The experiment in a line: Example W: preventative in vivo test with Uromyces appendiculatus (bean rust). Particulars: 500 ppm, evaluation 10 days after inoculation. How it is done: The active compounds tested are prepared by homogenization in a mixture of acetone/Tween/DMSO and then diluted with water to the desired active compound concentration. Bean plants (cultivar “Saxa”), sown in a 50/50 peat/pozzolana soil substrate and cultivated at 24° C., are treated at the 2-leaf stage (height 9 cm) by spraying with the active compound, prepared as above. As a control, plants are treated with the mixture of acetone/Tween/DMSO/water without the active compound. After 24 hours, the plants are inoculated by spraying the leaves with an aqueous suspension of Uromyces appendiculatus spores.

A further series has as its system Puccinia recondita. Briefly: Example T: preventative in vivo test with Puccinia recondita (brown rust on wheat). Particulars: 500 ppm, evaluation 10 days after inoculation. How it is done: The active compounds tested are prepared by homogenization in a mixture of acetone/Tween/DMSO and then diluted with water to the desired active compound concentration. Wheat plants (cultivar “Scipion”), sown in a 50/50 peat/pozzolana soil substrate and cultivated at 22° C. (12 h)/20° C. (12 h), are treated at the 1-leaf stage (height 10 cm) by spraying with the active compound, prepared as above. As a control, plants are treated with the mixture of acetone/Tween/DMSO/water without the active compound. After 24 hours, the plants are inoculated by spraying the leaves with an aqueous suspension of Puccinia recondita spores.

In series [5] the test system is Sphaerotheca fuliginea. Briefly: Example B: Sphaerotheca test (cucumber)/protective. The series is classed as in vivo. The following applies: protective, 500 ppm, evaluation 7 days after inoculation. The procedure: Solvent: 49 parts by weight of N,N-dimethylformamide Emulsifier: 1 part by weight of alkylaryl polyglycol ether To produce a suitable preparation of active compound, 1 part by weight of active compound is mixed with the stated amounts of solvent and emulsifier, and the concentrate is diluted with water to the desired concentration. To test for protective activity, young cucumber plants are sprayed with the preparation of active compound at the stated application rate. 1 day after the treatment, the plants are inoculated with a spore suspension of Sphaerotheca fuliginea. The plants are then placed in a greenhouse at 70% relative air humidity and a temperature of 23° C.

The test system of another series is Pyricularia oryzae. The series is classed as in vivo. Particulars: rice, protective, 500 ppm, evaluation 7 days after inoculation.
Series [6] relates to Septoria tritici. The experiment in a line: Example I: Septoria tritici test (wheat)/protective. The series is classed as in vivo. Particulars: protective, 500 ppm, evaluation 21 days after inoculation. How it is done: Solvent: 49 parts by weight of N,N-dimethylacetamide Emulsifier: 1 part by weight of alkylaryl polyglycol ether To produce a suitable preparation of active compound, 1 part by weight of active compound is mixed with the stated amounts of solvent and emulsifier, and the concentrate is diluted with water to the desired concentration. To test for protective activity, young plants are sprayed with the preparation of active compound at the stated application rate. After the spray coating has dried on, the plants are sprayed with a spore suspension of Septoria tritici.

For series [7], the system named is Uromyces appendiculatus. Briefly: Example E: Uromyces test (bean)/protective. The format is in vivo. The following applies: protective, 10 ppm, evaluation 10 days after inoculation. The procedure:
Solvents: 24.5 parts by weight of acetone • 24.5 parts by weight of dimethylacetamide Emulsifier: 1 part by weight of alkylaryl polyglycol ether To produce a suitable preparation of active compound, 1 part by weight of active compound is mixed with the stated amounts of solvent and emulsifier, and the concentrate is diluted with water to the desired concentration. To test for protective activity, young plants are sprayed with the preparation of active compound at the stated application rate. […] The plants are then placed in a greenhouse at about 21° C. and a relative atmospheric humidity of about 90%.

Structures are written as SMILES. Read-outs that look alike come from different tables or passages of the source. Marks after values point to notes of the source that are not given here.

As to `Fc1ccc(C2(Cn3ccnc3I)OC2c2ccccc2Cl)cc1` (stereo not drawn) [Example 7], the logP in series [1] (pH 2.7) was 2.73^[a].

Compound `Fc1ccc([C@]2(Cn3ccnc3I)O[C@@H]2c2ccccc2Cl)c(F)c1` (relative stereo) [Example 13, rel-1-{[(2R,3R)-3-(2-chlorophenyl)-2-(2,4-difluorophenyl)oxiran-2-yl]methyl}-2-iodo-1H-imidazole] returned an Efficacy % in the series on Phytophthora infestans of 98%. The chromatographic logP in series [1] (pH 2.7, log P(HCOOH)) came out at 2.86; in [1] (pH 2.7, logP), 2.86.

Regarding `Fc1ccc(C(=Cc2ccccc2Cl)CBr)c(F)c1` [1-[3-bromo-1-(2-chlorophenyl)prop-1-en-2-yl]-2,4-difluorobenzene], the “log P(HCOOH)” value in series [1] (pH 2.7) is on record as 5.25. Also, in series [1] (pH 2.7, log P(HCOOH)), the chromatographic logP is 4.8.

Regarding `Fc1cc(Cl)ccc1C1(Cn2ccnc2I)OC1c1ccccc1Cl` (stereo not drawn) [Example 10], the Efficacy % in the series on Sphaerotheca fuliginea [2] amounted to 98%; in the series with Septoria tritici [3] it was 96%. Besides, the logP in series [1] (pH 2.7) is 3.23^[a].

With `OC(Cn1ccnc1I)(c1ccc(Cl)cc1)C1(Oc2ccc(F)cc2)CC1` (stereo not drawn) [Example 3], the logP in [1] (pH 2.7) is reported as 2.55; in series [1] (pH 7.8), 3.55.

Take `CC(=Cc1ccccc1Cl)c1ccc(F)cc1F` [1-[1-(2-chlorophenyl)prop-1-en-2-yl]-2,4-difluorobenzene]: the chromatographic logP came to 5.05 in [1] (pH 2.7, HPLC/MS, major diastereoisomer of the mixture, read-out: log P(HCOOH)) and 5.34 in series [1] (pH 2.7, HPLC/MS, minor diastereoisomer of the mixture, read-out: log P(HCOOH)).

`Fc1cc(Cl)ccc1C1(Cn2ccnc2I)OC1c1ccccc1Cl` (mixture of isomers) [Example 9]: the Efficacy % in the series on Sphaerotheca fuliginea [2] amounted to 100%; in the series on Uromyces appendiculatus [4] it was 93%; in the series with Puccinia recondita it was 86%; in the series with Septoria tritici [3], 100%.

With `OC(Cn1ccnc1I)(c1ccc(F)cc1F)C1(Oc2ccc(F)cc2)CC1` (stereo not drawn) [Example 5], the Eff. % is 88% with Sphaerotheca fuliginea [5] and 95% in the series with Pyricularia oryzae.

Take `Fc1ccc(C2(Cn3ccnc3I)OC2c2ccccc2Cl)c(F)c1` (stereo not drawn) [Example 12, 1-{[3-(2-chlorophenyl)-2-(2,4-difluorophenyl)oxiran-2-yl]methyl}-2-iodo-1H-imidazole]: the Efficacy % in the series with Sphaerotheca fuliginea [2] was found to be 100%; in the series with Uromyces appendiculatus [4], 99%; in the series with Phytophthora infestans it was 88%; in the series on Puccinia recondita, 93%; in the series on Septoria tritici [3] it was 100%. For the same compound, the “log P(HCOOH)” value in series [1] (pH 2.7) is 3.31. Also, the chromatographic logP in [1] (pH 2.7, log P(HCOOH)) is 2.92; in series [1] (pH 2.7, logP), 2.92. In the series with Septoria tritici [6], this compound returned an Eff. % of 71%.

As to `Fc1ccc(C2(Cn3ccnc3I)OC2c2ccccc2Cl)c(Cl)c1` (stereo not drawn) [Example 16], the logP in [1] (pH 2.7) was 3.13^[a].

For `Fc1ccc(C2(Cn3ccnc3I)OC2c2ccccc2Cl)c(Cl)c1` (stereo not drawn) [Example 17], the Efficacy % in the series on Sphaerotheca fuliginea [2] came out at 100%; in the series with Uromyces appendiculatus [4], 100%; in the series on Puccinia recondita it was 100%; with Septoria tritici [3], 97%. The logP in [1] (pH 2.7) is 3.68^[a]. The compound further returned an Eff. % in the series with Uromyces appendiculatus [7] of 75%.

Take `Fc1ccc(C2(Cn3ccnc3I)OC2c2ccccc2Cl)c(Cl)c1` (mixture of isomers) [Example 15]: the Efficacy % was 98% in the series on Sphaerotheca fuliginea [2], 100% in the series with Uromyces appendiculatus [4], 100% in the series with Puccinia recondita and 86% in the series with Septoria tritici [3].

For `OC(Cc1c(Cl)cccc1I)(Cn1ccnc1I)C1(Cl)CC1` (stereo not drawn) [Example 18], the Efficacy % in the series on Sphaerotheca fuliginea [2] and in the series with Uromyces appendiculatus [4] was 100% throughout. Besides, the logP in series [1] (pH 2.7) is on record as 3.04; in series [1] (pH 7.8), 4.

On to `Fc1ccc(C2(CBr)OC2c2ccccc2Cl)c(F)c1` (stereo not drawn) [2-(bromomethyl)-3-(2-chlorophenyl)-2-(2,4-difluorophenyl)oxirane], for which the “log P(HCOOH)” value in series [1] (pH 2.7) stood at 5.00. The same compound showed a chromatographic logP in series [1] (pH 2.7, log P(HCOOH)) of 4.61.
